Measurements reported in patent EP0728482A2, “Use of hcp specific compounds to enhance erythropoiesis” (SMITHKLINE BEECHAM CORPORATION, priority 1995, dated 1996).

Biological target: T1, human SH-PTP2 SH2 domain (Homo sapiens, UniProt Q06124)
T1 construct: made in house; host or cells: E. coli (pGEX-2T)
T1 sequence (Q06124 1-106): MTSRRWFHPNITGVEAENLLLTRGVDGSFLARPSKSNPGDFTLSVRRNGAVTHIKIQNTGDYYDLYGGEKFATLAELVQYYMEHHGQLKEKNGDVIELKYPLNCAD
Experiment: ELISA-based SH2 domain / pY peptide binding assay, SH-PTP2 SH2 domain
Conditions: Ki calculated from IC50 with the expanded equation
Method: The inhibitory activity of compounds at the different human SH2 domains was determined in vitro using SH2 domains expressed as fusion proteins in E. coli. The SH2 domains used herein were the human forms of the src SH2 domain, Grb2 SH2 domain, lck SH2 domain, fyn SH2 domain, SH-PTP2 SH2 domain, p85 SH2 domain and hcp SH2 domain.
Fusion proteins having the structure GST-X-SH2 were prepared as described in the GST gene fusion kit system available from Pharmacia (New Jersey). GST is the tagging sequence glutathione s-transferase epitope (SEQ ID NO: 8) for fyn, Grb2 and SH-PTP2 and is the tagging sequence glutathione s-transferase epitope (SEQ ID NO: 9) for p85. SH2 refers to the SH2 domains of fyn, Grb2, p85 and SH-PTP2 which were expressed and purified using glutathione Sepharose 4B (Pharmacia) according to "Current Protocols in Molecular Biology", ed. FM Ausubel et al., pub. John Wiley and Sons, Inc., (1995), p 16.7.1. X is an appropriate linker, preferably of 6 to 21 base pairs, used to keep the SH2 construct in frame and complement cloning. As such, the sequence of X is not critical. One skilled in the art can readily construct the appropriate linker. The DNA sequence encoding each GST-X-SH2 fusion protein was designed such that the indicated restriction sites (BamH1 and EcoRI) flank the SH2 region. […]

With `CCCCCCNC(=O)[C@H]1CC[C@H](CNC(=O)c2ccc(C(=O)c3ccc(C(=O)O)cc3)cc2)CC1` [Compound 6, 4-carboxy-benzophenone-4-carboxamido-trans-4-methyl-cyclohexyl-N-hexyl carboxamide] the Ki was > 1000 µM.
